# According to PubChem BioAssay (NCI):
#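 Each compound was tested at five concentrations against cells in 96-well plates for 48 hours. At the GI50, growth is halved. TGI: total growth inhibition.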
# Assays:
# Assay in all cases: NCI anticancer screen, dose series, 48 h
# CAKI-1 renal = tested on: CAKI-1 renal
# UACC-62 melanoma = tested on: UACC-62 melanoma
# DU-145 prostate = tested on: DU-145 prostate
# IGROV1 ovarian = tested on: IGROV1 ovarian
# SK-MEL-2 melanoma = tested on: SK-MEL-2 melanoma
# MDA-MB-435 = tested on: MDA-MB-435
# HCT-116 colon = tested on: HCT-116 colon
# LOX IMVI melanoma = tested on: LOX IMVI melanoma
# OVCAR-4 ovarian = tested on: OVCAR-4 ovarian
# NCI/ADR-RES ovarian = tested on: NCI/ADR-RES ovarian
# SF-268 CNS = tested on: SF-268 CNS
# 786-0 renal = tested on: 786-0 renal
# HT29 colon = tested on: HT29 colon
# SNB-19 CNS = tested on: SNB-19 CNS
# NCI-H522 lung = tested on: NCI-H522 lung
# TK-10 renal = tested on: TK-10 renal
# SF-295 CNS = tested on: SF-295 CNS
# HCT-15 colon = tested on: HCT-15 colon
# PC-3 prostate = tested on: PC-3 prostate
# HOP-92 NSCLC = tested on: HOP-92 NSCLC
# EKVX NSCLC = tested on: EKVX NSCLC
# A498 renal = tested on: A498 renal
# OVCAR-5 ovarian = tested on: OVCAR-5 ovarian
# RXF 393 renal = tested on: RXF 393 renal
# SF-539 CNS = tested on: SF-539 CNS
# OVCAR-8 ovarian = tested on: OVCAR-8 ovarian
# NCI-H226 lung = tested on: NCI-H226 lung
# ACHN renal = tested on: ACHN renal
# SR leukemia = tested on: SR leukemia
# SK-MEL-28 melanoma = tested on: SK-MEL-28 melanoma
# U251 CNS = tested on: U251 CNS
# MOLT-4 leukemia = tested on: MOLT-4 leukemia
# T-47D breast = tested on: T-47D breast
# UO-31 renal = tested on: UO-31 renal
# NCI-H460 lung = tested on: NCI-H460 lung
# MDA-MB-231 breast = tested on: MDA-MB-231 breast
# SN12C renal = tested on: SN12C renal
# NCI-H23 lung = tested on: NCI-H23 lung
# HOP-62 NSCLC = tested on: HOP-62 NSCLC
# MCF7 breast = tested on: MCF7 breast
# OVCAR-3 ovarian = tested on: OVCAR-3 ovarian
# MALME-3M melanoma = tested on: MALME-3M melanoma
# HCC-2998 colon = tested on: HCC-2998 colon
# SK-OV-3 ovarian = tested on: SK-OV-3 ovarian
# HS 578T breast = tested on: HS 578T breast
# CCRF-CEM leukemia = tested on: CCRF-CEM leukemia
# BT-549 breast = tested on: BT-549 breast
# M14 melanoma = tested on: M14 melanoma
# RPMI-8226 leukemia = tested on: RPMI-8226 leukemia
# COLO 205 colon = tested on: COLO 205 colon
# HL-60(TB) leukemia = tested on: HL-60(TB) leukemia
# SW-620 colon = tested on: SW-620 colon
# UACC-257 melanoma = tested on: UACC-257 melanoma
# SNB-75 CNS = tested on: SNB-75 CNS
# SK-MEL-5 melanoma = tested on: SK-MEL-5 melanoma
# KM12 colon = tested on: KM12 colon
# A549 NSCLC = tested on: A549 NSCLC
structure (smiles),measurement,setting,value
CCOC(=O)C1=C(C)NC(C)=C(C(=O)OCC)C1c1cc(Br)c(O)c(OC)c1,GI50,CAKI-1 renal,4.79 µM
same,TGI,CAKI-1 renal,30.8 µM
same,GI50,UACC-62 melanoma,4.71 µM
same,TGI,UACC-62 melanoma,17 µM
same,GI50,DU-145 prostate,3.88 µM
same,TGI,DU-145 prostate,13.1 µM
same,GI50,IGROV1 ovarian,7.39 µM
same,TGI,IGROV1 ovarian,37.2 µM
same,GI50,SK-MEL-2 melanoma,5.29 µM
same,TGI,SK-MEL-2 melanoma,20.1 µM
same,GI50,MDA-MB-435,1.85 µM
same,TGI,MDA-MB-435,6.2 µM
same,GI50,HCT-116 colon,3.97 µM
same,TGI,HCT-116 colon,13.5 µM
same,GI50,LOX IMVI melanoma,5.23 µM
same,TGI,LOX IMVI melanoma,18.6 µM
same,GI50,OVCAR-4 ovarian,5.97 µM
same,TGI,OVCAR-4 ovarian,37 µM
same,GI50,NCI/ADR-RES ovarian,2.71 µM
same,TGI,NCI/ADR-RES ovarian,9.4 µM
same,GI50,SF-268 CNS,5.36 µM
same,TGI,SF-268 CNS,22.4 µM
same,GI50,786-0 renal,4.01 µM
same,TGI,786-0 renal,18 µM
same,GI50,HT29 colon,4.72 µM
same,TGI,HT29 colon,18.2 µM
same,GI50,SNB-19 CNS,4.25 µM
same,TGI,SNB-19 CNS,16.8 µM
same,GI50,NCI-H522 lung,4.22 µM
same,TGI,NCI-H522 lung,20.1 µM
same,GI50,TK-10 renal,9.54 µM
same,TGI,TK-10 renal,39.2 µM
same,GI50,SF-295 CNS,2.89 µM
same,TGI,SF-295 CNS,10.5 µM
same,GI50,HCT-15 colon,3.65 µM
same,TGI,HCT-15 colon,14.2 µM
same,GI50,PC-3 prostate,3.62 µM
same,TGI,PC-3 prostate,27.2 µM
same,GI50,HOP-92 NSCLC,1.82 µM
same,TGI,HOP-92 NSCLC,12.3 µM
same,GI50,EKVX NSCLC,7.65 µM
same,TGI,EKVX NSCLC,34.4 µM
same,GI50,A498 renal,2.19 µM
same,TGI,A498 renal,7.13 µM
same,GI50,OVCAR-5 ovarian,4.32 µM
same,TGI,OVCAR-5 ovarian,15.9 µM
same,GI50,RXF 393 renal,1.98 µM
same,TGI,RXF 393 renal,6.05 µM
same,GI50,SF-539 CNS,2.64 µM
same,TGI,SF-539 CNS,7.07 µM
same,GI50,OVCAR-8 ovarian,4.47 µM
same,TGI,OVCAR-8 ovarian,38.9 µM
same,GI50,NCI-H226 lung,2.77 µM
same,TGI,NCI-H226 lung,12.4 µM
same,GI50,ACHN renal,5.56 µM
same,TGI,ACHN renal,22 µM
same,GI50,SR leukemia,2.01 µM
same,TGI,SR leukemia,21.2 µM
same,GI50,SK-MEL-28 melanoma,4.32 µM
same,TGI,SK-MEL-28 melanoma,16.7 µM
same,GI50,U251 CNS,4.01 µM
same,TGI,U251 CNS,15.6 µM
same,GI50,MOLT-4 leukemia,3.61 µM
same,TGI,MOLT-4 leukemia,52.4 µM
same,GI50,T-47D breast,8.53 µM
same,TGI,T-47D breast,46.6 µM
same,GI50,UO-31 renal,4.55 µM
same,TGI,UO-31 renal,25.2 µM
same,GI50,NCI-H460 lung,3.98 µM
same,TGI,NCI-H460 lung,14.4 µM
same,GI50,MDA-MB-231 breast,6.15 µM
same,TGI,MDA-MB-231 breast,20.4 µM
same,GI50,SN12C renal,6.07 µM
same,TGI,SN12C renal,22.5 µM
same,GI50,NCI-H23 lung,4.81 µM
same,TGI,NCI-H23 lung,22.4 µM
same,GI50,HOP-62 NSCLC,4.37 µM
same,TGI,HOP-62 NSCLC,14.7 µM
same,GI50,MCF7 breast,4.41 µM
same,TGI,MCF7 breast,23.9 µM
same,GI50,OVCAR-3 ovarian,2.34 µM
same,TGI,OVCAR-3 ovarian,5.15 µM
same,GI50,MALME-3M melanoma,10.6 µM
same,TGI,MALME-3M melanoma,32.7 µM
same,GI50,HCC-2998 colon,3.12 µM
same,TGI,HCC-2998 colon,10.8 µM
same,GI50,SK-OV-3 ovarian,2.92 µM
same,TGI,SK-OV-3 ovarian,7.38 µM
same,GI50,HS 578T breast,2.54 µM
same,TGI,HS 578T breast,9.47 µM
same,GI50,CCRF-CEM leukemia,3.37 µM
same,TGI,CCRF-CEM leukemia,15.7 µM
same,GI50,BT-549 breast,2.8 µM
same,TGI,BT-549 breast,10.6 µM
same,GI50,M14 melanoma,3.05 µM
same,TGI,M14 melanoma,10.1 µM
same,GI50,RPMI-8226 leukemia,4.52 µM
same,TGI,RPMI-8226 leukemia,41.4 µM
same,GI50,COLO 205 colon,10.3 µM
same,TGI,COLO 205 colon,22.9 µM
same,GI50,HL-60(TB) leukemia,2.35 µM
same,TGI,HL-60(TB) leukemia,6.35 µM
same,GI50,SW-620 colon,4.12 µM
same,TGI,SW-620 colon,16.3 µM
same,GI50,UACC-257 melanoma,12.6 µM
same,TGI,UACC-257 melanoma,31.4 µM
same,GI50,SNB-75 CNS,1.85 µM
same,TGI,SNB-75 CNS,7.14 µM
same,GI50,SK-MEL-5 melanoma,3.61 µM
same,TGI,SK-MEL-5 melanoma,14.6 µM
same,GI50,KM12 colon,3.74 µM
same,TGI,KM12 colon,14 µM
same,GI50,A549 NSCLC,4.11 µM
same,TGI,A549 NSCLC,18.8 µM
